“Also recorded” adds a separate entry of the source.
How the values were obtained:
[1] = test system: high fat diet (HFD) rats; test: 8-week (56 day) treatment study in high fat diet rats with pair-fed controls (body weight, food intake, adipose tissue, liver TAG, adipokines); format: in vivo, rat; settings: for liver triglyceride / triacylglycerol content: 8 weeks, all dose groups; for body weight: HFD rats, 0.625-10 μg/kg/day, 8 weeks (56 days), vs vehicle and pair-fed
Procedure: (§1) To obtain obese rats, male Sprague-Dawley rats aged 12 weeks were placed on a diet consisting of regular rodent chow and a 60 kcal % high-fat diet (no. D12495; Research Diets) for a total of 12 wk. Following the 12 weeks on high fat diet the rats were randomized into treatment groups based on weight.
The second study consisted of the following groups: vehicle, KBP-042 0.625 μg/kg/day, KBP-042 1.25 μg/kg/day, KBP-042 2.5 μg/kg/day, KBP-042 5 μg/kg/day, KBP-042 10 μg/kg/day, pair-fed (calorie restriction) matching the 5 μg/kg/day and pair-fed (calorie restriction) matching the 10 μg/kg/day, to allow assessment of the effect of KBP-042 on bodyweight independent of its effect on food intake.
Throughout the experiment the bodyweight and food intake were monitored, and at termination liver and fat depots were collected for weighing and potential analysis of triglyceride content.
(§2) The method is based on Folch et al. At the time of extraction the samples were portioned at 500 mg individually and transferred to glass tubes, followed by the addition of 10 mL 100 μg/mL butylated hydroxytoluene (BHT) in chloroform:methanol 2:1 (v:v), and placed on ice. Each sample was added 150 μL of the internal standard solution. Homogenization was performed using a rotor-stator submersion blender (IKA Ultra-Turrax T25) with the sample tubes submerged in ice-water. The samples were each homogenized for 3×10 seconds with 50 second intervals, where after the homogenate is transferred to 35 mL screw-cap centrifuge tubes. The aggregate was cleaned in 5 mL chloroform:methanol 2:1 in the original glass tube, which was then transferred quantitatively to the homogenate. The homogenate was added 3 mL (0.24 times the total homogenate volume) of 0.73% (w/v) NaCl in MiliQ H2O and mixed, followed by centrifugation at 2800·g for 5 minutes at 4° C., to create a 2-phase system. The lower phase was transferred to a clean 12.5 mL centrifugation tube. The homogenate (the upper phase) was then added 3 mL chloroform:methanol 85:15 and mixed, followed by another centrifugation step. The new lower phase was then isolated and added to the first extract and dried down under nitrogen in a 40° C. water bath, followed by resolubilization in 300 μL chloroform:methanol 2:1. At this point the lipid extracts can be stored at −20° C.
(§3) The lipid extracts were fractionated on amino-propyl columns (Phenomenex Strata NH2, product number: 8B-S009-HBJ). The columns were pre-washed with 2×2 mL chloroform:methanol 23:1 (v:v) and left to dry. During fractionation the columns were not allowed to dry. The columns were primed with 2×1 mL hexane followed by application of the lipid extracts. Fraction 1 containing cholesterol esters was eluted with 3 mL Hexane into a clean tube. Fraction 2 containing TAG was eluted using 3 mL hexane:chloroform:ethylacetate 100:5:5 (v:v:v) into a clean tube. Fraction 3 containing DAG, Cholesterol and Ceramide was eluted using 3×2 mL chloroform:methanol 23:1 (v:v) into a new glass. Fraction 4 containing FFA was eluted using 5 mL 2% acetic acid in diethyl ether into a new glass. Fraction 5 containing PL was eluted using 4 mL methanol into a new glass. Fractions 1 and 2 were dried down under nitrogen at 40° C. and re-dissolved in 300 μL chloroform:methanol 95:5 and stored at −20° C. Fraction 4 and half of fraction 5 (fraction 5A) were dried down under nitrogen at 40° C. and re-dissolved in 300 μL chloroform:methanol 2:1 and stored at −20° C. Fraction 3 was equally dried down and re-dissolved in 135 μL chloroform and 67.5 μL isopropanol, transferred to HPLC vials and stored at −20° C. The other half of fraction (fraction 5B) was dried down under nitrogen and re-dissolved in 200 μL chloroform:isopropanol 1:1 (v:v), transferred to HPLC vials and stored at −20° C.
To allow gas chromatographic analysis of the fatty acids they must be converted to the more volatile Fatty Acid Methyl Ester (FAME) form. […]

[2] = test system: obese rats; test: 16-day treatment study in obese rats (bodyweight, food intake, fat depots, liver lipid analysis); format: in vivo, rat; settings: 16 days; for liver arachidonic acid / liver free fatty acids / liver triacylglycerols: extracted liver tissue, 7.5 μg/kg/day
Procedure: Two studies were conducted, and in both studies the obese rats used were generated as follows:
as §1
The initial study was a 16-day treatment study, in which three groups were studied: Lean (same age but no high fat diet), vehicle (obese control group), and KBP-042 at 7.5 μg/kg/day. Throughout the experiment the bodyweight and food intake were monitored, and at termination liver and fat depots were collected for weighing and potential analysis of triglyceride, free fatty acids and arachidonic acid content.
As the quantification procedure contains several steps an internal standard was added to each sample extraction, which enables the results to be normalized and correcting for any loss. The internal standard was prepared as a solution containing 3.66 mg/mL C19:0 TAG (Sigma-Aldrich, product number: T4632), 2.73 mg/mL C17:0 Phospholipid (PL), 0.4 mg/mL C19:0 FFA (Sigma-Aldrich, product number: N-8263), 0.096 mg/mL C15:0 Diacylglycerol (DAG), 0.06 mg/mL d31-tagged Ceramide, 0.03 mg/mL d7-tagged Sphingosine, 1.036 mg/mL Sitostanol, 0.04 mg/mL d31-tagged Sphingomyelin and 1.596 mg/mL C15:0 Cholesterolester in Chloroform:Methanol 2:1 (v/v).
as §2
as §3, with “Fraction 4 and half of fraction 5 (fraction 5A) were dried down under nitrogen at 40° C. and re-dissolved in 300 μL chloroform:methanol 2:1 and stored at −20° C. Fraction 3 was equally dried down and re-dissolved in 135 μL chloroform and 67.5 μL isopropanol, transferred to HPLC vials and stored at −20° C. The other half of fraction (fraction 5B) was dried down under nitrogen and re-dissolved in 200 μL chloroform:isopropanol 1:1 (v:v), transferred to HPLC vials and stored at −20° C.” left out

[3] = KBP-042 7.5 μg/kg/day, vs saline

## AcCSNLSTCVLGKLSQELHKLQTYPRTDVGANAP-NH2 (Ac-CSNLSTCVLGKLSQELHKLQTYPRTDVGANAP-NH2; not fully specified (bridges); cysteine pairing not given here) [KBP-042, calcitonin mimetic with Cys1-Cys7 disulphide bridge]
[1]; 1.25 μg/kg, 2.5 μg/kg, 5 μg/kg and 10 μg/kg, 56 days
  plasma adiponectin levels: significantly increased
[1]; 2.5 μg/kg, 5 μg/kg and 10 μg/kg groups compared to HFD-vehicle
  body weight at day 56: significantly lower
[1]; 2.5 μg/kg, 5 μg/kg and 10 μg/kg, 56 days, calculated from food intake and body weight change, significantly different from pair-fed controls
  food efficiency: drastic reduction
[1]; 10 μg/kg compared to the corresponding pair-fed control, 56 days
  plasma leptin levels: reached statistical significance
[1]; 10 μg/kg, 56 days, vs HFD-Vehicle, pair-fed control not significant
  liver triacylglycerols (TAG): significantly reduced
[1]; 10 μg/kg, 56 days, vs HFD-vehicle
  weight of isolated epididymal white adipose tissue: significantly reduced
[1]; 2.5, 5 and 10 μg/kg, 56 days, vs HFD-vehicle, not seen in pair-fed controls
  weight of isolated perirenal white adipose tissue: significant reduction in size
[1]; 8-week study, compared to vehicle, even in a pair fed experiment
  perirenal fat depot: reduced
[1]; compared to vehicle
  liver triglyceride / triacylglycerol content: trends indicated a dose-dependent effect
[1]; compared to vehicle, listed as KBP peptide
  liver triglyceride / triacylglycerol content: reduced
[1]; compared to vehicle, listed as KBP-peptide
  liver triglyceride / triacylglycerol content: improvement
[1]; 56 days
  fatty acid composition of hepatic TAG: no differences in the relative distribution
  weight of inguinal white adipose tissue: trend towards reducing
[1]; 56 days, all doses
  plasma leptin levels: trend towards reduced levels
[1]
  body weight: dose-dependent and sustained reduction of body weight; also recorded: large reduction in body weight and maintained weight loss for 8 weeks
[1]; listed as KBP-peptide
  body weight: marked weight reduction even when compared to the calorie restricted groups
[1]; first 6 days of treatment, 2.5, 5 and 10 μg/kg, transient
  food intake: large reduction in food intake
[2]; KBP-042 7.5 μg/kg/day, at termination
  fat depots (epididymal visceral fat): fats depots were reduced
[2]; [3]
  body weight: marked weight reduction
  food intake: pronounced reduction in food intake early
[2]
  liver arachidonic acid: reduced the levels
  liver free fatty acids: reduced
  liver triacylglycerols: reduced triacylglycerols
[2]; listed as KBP-peptide
  liver arachidonic acid: improvement
  liver free fatty acids: improvement
  liver triacylglycerols: improvement

Reference: US10350272B2, “Calcitonin analogues for treating diseases and disorders” (KeyBioscience AG, priority 2015, dated 2019)
